One data set addresses T1, COX-1 (Ovis aries, UniProt P05979).
T1 construct: purchased BioVision (Milpitas, CA, USA) K548-100
Kind of data set: Fluorimetric COX-1 inhibition screening kit (BioVision). Format: biochemical. The note with it: for COX-1 inhibition at the initial concentrations: 10^−3 M and 10^−4 M; for inhibition at 10 µM: 10^−5 M; for inhibition at 1 µM: 10^−6 M; for inhibition at 0.1 µM: 10^−7 M; for inhibition at 0.01 µM: 10^−8 M; for inhibition at 0.001 µM: 10^−9 M. As to the method:
(§1) Inhibitory potency of the compounds on COX-1 and COX-2 enzymes was determined by using fluorimetric COX-1 and COX-2 inhibition screening kits from BioVision (Milpitas, CA, USA). The experimental protocol as described in the guides provided by the supplier was followed. All of the pipetting were performed using a robotized system to increase speed, accuracy and precision. Fluorescence intensities of the samples were kinetically measured at 25 °C for 5–10 min by monitoring emissions at 587 nm after excitation at 535 nm. Two appropriate points (T1 and T2) in the linear range of the plot were chosen and the corresponding fluorescence values (RFU1 and RFU2) were obtained. The slope for all samples including Enzyme Control (EC) was calculated by dividing the net ΔRFU (RFU2 − RFU1) values by the time ΔT (T2 − T1). Percentage of relative inhibition was calculated by using the following equation:% Relative inhibition = (Slope of EC − Slope of S/Slope of EC) × 100 where S is the term representing the tested compound [51, 52]. […] The IC50 values were calculated using the plots of the enzyme activity against concentrations by applying regression analyses.

The target in another data set is T2, COX-2 (Homo sapiens, UniProt P35354).
T2 construct: purchased BioVision (Milpitas, CA, USA) K547-100
T2 sequence (P35354 18-604): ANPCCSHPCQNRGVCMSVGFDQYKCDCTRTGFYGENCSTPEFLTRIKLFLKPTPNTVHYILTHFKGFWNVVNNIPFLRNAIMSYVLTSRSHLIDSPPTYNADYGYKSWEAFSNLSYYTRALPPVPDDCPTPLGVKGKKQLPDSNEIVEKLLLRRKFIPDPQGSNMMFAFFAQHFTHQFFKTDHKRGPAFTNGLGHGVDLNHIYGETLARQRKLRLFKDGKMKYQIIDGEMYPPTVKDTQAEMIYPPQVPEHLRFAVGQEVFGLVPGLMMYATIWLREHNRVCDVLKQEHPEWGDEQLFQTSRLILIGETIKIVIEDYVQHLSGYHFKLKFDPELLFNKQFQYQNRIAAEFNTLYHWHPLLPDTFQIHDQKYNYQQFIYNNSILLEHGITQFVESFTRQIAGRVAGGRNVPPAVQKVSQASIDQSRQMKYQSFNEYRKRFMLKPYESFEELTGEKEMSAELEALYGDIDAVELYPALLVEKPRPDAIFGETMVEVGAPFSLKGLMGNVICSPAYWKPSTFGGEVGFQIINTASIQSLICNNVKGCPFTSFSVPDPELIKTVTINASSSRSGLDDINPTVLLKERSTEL
Kind of data set: Fluorimetric COX-2 inhibition screening kit (BioVision). Format: biochemical. The note with it: for COX-2 inhibition at the initial concentrations: 10^−3 M and 10^−4 M; for inhibition at 10 µM: 10^−5 M; for inhibition at 0.1 µM: 10^−7 M; for inhibition at 0.01 µM: 10^−8 M; for inhibition at 0.001 µM: 10^−9 M; for inhibition at 1 µM: read-out: COX 2 Inhibition %. As for the experimental part:
as §1

The target in the next data set is T3, human recombinant MAO-B (Homo sapiens, UniProt P27338).
T3 sequence (P27338 1-520): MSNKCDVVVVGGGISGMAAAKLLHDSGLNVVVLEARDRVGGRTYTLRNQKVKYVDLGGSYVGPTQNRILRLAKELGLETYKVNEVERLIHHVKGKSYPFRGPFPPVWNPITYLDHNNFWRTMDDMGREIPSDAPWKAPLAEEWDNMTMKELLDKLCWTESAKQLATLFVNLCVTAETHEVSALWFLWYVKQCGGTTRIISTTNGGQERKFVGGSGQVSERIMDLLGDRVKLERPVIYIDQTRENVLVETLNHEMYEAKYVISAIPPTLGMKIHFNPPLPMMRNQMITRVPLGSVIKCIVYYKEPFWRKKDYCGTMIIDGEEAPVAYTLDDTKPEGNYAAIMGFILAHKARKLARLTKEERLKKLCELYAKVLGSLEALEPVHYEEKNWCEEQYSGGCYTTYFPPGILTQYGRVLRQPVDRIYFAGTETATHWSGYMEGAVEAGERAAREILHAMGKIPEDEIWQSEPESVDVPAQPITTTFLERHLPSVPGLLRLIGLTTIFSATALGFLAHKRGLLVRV
Kind of data set: MAO inhibition assay (kynuramine, fluorimetric). The data set is classed as biochemical. As to the method:
Enzyme activity assays were performed according to the procedure reported by Matsumoto et al. with slight modifications. In order to prevent the destructive effect of light on MAO enzymes, the assays were performed in 96-well black plates. Phosphate buffer solution (0.1 M, pH = 7.4) was used for preparation of stock solutions (5 mg/mL) of both human recombinant MAO-A and MAO-B enzymes. […] The addition of the test compound solution was followed by addition of either MAO-A or MAO-B enzyme (50 μL/well) solutions. After 10 min of incubation at 37 °C, kynuramine (50 μL/well) was added and enzyme-substrate reaction was initiated. The plate was incubated for 20 min at 37 °C and then reaction was terminated by addition of 2 N NaOH (75 μL/well). The fluorimetric reads from the top was performed at 310 nm excitation and 380 nm emission wavelengths.

The nature of the next data set: MTT cytotoxicity assay. Format: cell-based, mouse. The note with it: mouse, NIH/3T3 mouse embryonic fibroblast cells, read-out: Cytotoxicity NIH3T3 Cells IC50. As to the method: (§2) Cytotoxicity was tested using NIH/3T3 mouse embryonic fibroblast cell line (ATCC® CRL-1658™, London, UK). NIH/3T3 cells were incubated according to the supplier’s recommendations. NIH/3T3 cells were seeded as 1 × 10^4 cells into each well of 96-well plates. MTT assay was performed as previously described. The compounds were tested between 1 mM and 0.000316 mM concentrations (1.0, 0.316, 0.10, 0.0316, 0.01, 0.00316, 0.001, 0.000316 mM). The IC50 values were determined by plotting a dose-response curve of inhibition % versus tested concentrations of the compound [62].
For orientation: Formazan colour is commonly taken as a measure of viable cells.

Data set [1] has as its system NIH/3T3 mouse embryonic fibroblast cell line. Put plainly: MTT cytotoxicity assay. The data set is classed as cell-based. Conditions: NIH/3T3. As for the experimental part:
as §2

This note sets out measurements from paper PMC6152416, “Pharmacological and Toxicological Screening of Novel Benzimidazole-Morpholine Derivatives as Dual-Acting Inhibitors” (Molecules : A Journal of Synthetic Chemistry and Natural …, 2017).

Where two headings read alike, the source gives them in different places.

T1 sequence (P05979 25-600): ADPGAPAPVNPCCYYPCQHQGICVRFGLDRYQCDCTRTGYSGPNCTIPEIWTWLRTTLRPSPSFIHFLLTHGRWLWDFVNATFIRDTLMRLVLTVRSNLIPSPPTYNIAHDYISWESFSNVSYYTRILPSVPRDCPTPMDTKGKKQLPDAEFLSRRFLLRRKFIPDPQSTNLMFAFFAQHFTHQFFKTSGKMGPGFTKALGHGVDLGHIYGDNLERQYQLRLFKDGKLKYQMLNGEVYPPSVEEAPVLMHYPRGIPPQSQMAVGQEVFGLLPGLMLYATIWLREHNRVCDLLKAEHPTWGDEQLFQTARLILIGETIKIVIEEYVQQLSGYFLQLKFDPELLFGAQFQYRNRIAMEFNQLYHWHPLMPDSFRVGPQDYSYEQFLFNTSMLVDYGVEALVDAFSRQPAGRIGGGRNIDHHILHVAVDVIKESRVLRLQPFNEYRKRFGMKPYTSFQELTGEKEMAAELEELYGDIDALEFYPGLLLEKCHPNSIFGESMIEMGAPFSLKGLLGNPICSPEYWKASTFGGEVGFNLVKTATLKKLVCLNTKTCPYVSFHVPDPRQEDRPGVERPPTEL

Regarding `Clc1ccc(-c2nc3ccccc3n2CCN2CCOCC2)cc1` [Compound 2c, 2-(4-Chlorophenyl)-1-[2-(morpholin-4-yl)ethyl]-1H-benzimidazole], the “COX-1 Inhibition (%)” value at COX-1 (10^-3 M) was 24.55%; on COX-1 (10^-4 M), 22.15%. For the same molecule, the “COX-2 Inhibition (%)” value on COX-2 (10^-3 M) was determined as 17.85%; at COX-2 (10^-4 M) it was 20.99%. The “MAO-B Inhibition (%)” value on human recombinant MAO-B (10^-3 M) is listed as 41.12%; at human recombinant MAO-B (10^-4 M), 33.54%.
As to `FC(F)(F)Oc1ccc(-c2nc3ccccc3n2CCN2CCOCC2)cc1` [Compound 2m, 2-(4-Trifluoromethoxyphenyl)-1-[2-(morpholin-4-yl)ethyl]-1H-benzimidazole], at COX-1, the midpoint of inhibition, the IC50, lay at 21.9 µM; the “COX-1 inhibition at the initial concentrations” value is on record as “more than 50%”; 10 µM produced 47.4 ± 1.16% inhibition; the inhibition (usually the change of the read-out against control, counted positive when it falls) at 1 µM was 42 ± 0.88%. On COX-1, this molecule displayed an inhibition at 0.1 µM of 36.6 ± 0.92%, an inhibition at 0.01 µM of 26.2 ± 0.79% and an inhibition at 0.001 µM of 20 ± 0.62%. Also, on COX-1 (10^-3 M), the “COX-1 Inhibition (%)” value amounted to 79.15%. Also, the “COX-1 Inhibition (%)” value at COX-1 (10^-4 M) is given as 78.61%. For the same molecule, on COX-2, the half-inhibitory concentration (IC50) (in general, the point on the concentration scale where inhibition reaches its midpoint) stood at 22.7 µM; the “COX-2 inhibition at the initial concentrations” value is reported as “more than 50%”; the inhibition at 10 µM is 46.1 ± 1.13%; the inhibition at 0.1 µM was 34.5 ± 0.97%. Moreover, at COX-2, the inhibition at 0.01 µM amounted to 28.7 ± 0.83%, the inhibition at 0.001 µM is 22.3 ± 0.52% and the inhibition at 1 µM was determined as 41.2 ± 1.05%. Also, the “COX-2 Inhibition (%)” value at COX-2 (10^-3 M) is 64.22%. The “COX-2 Inhibition (%)” value on COX-2 (10^-4 M) was found to be 59.67%. For the same molecule, the “MAO-B Inhibition (%)” value on human recombinant MAO-B (10^-3 M) is given as 25.84%. Further, the “MAO-B Inhibition (%)” value at human recombinant MAO-B (10^-4 M) is given as 12.43%. Besides, the IC50 in “MTT cytotoxicity assay” was determined as 100 µM. The cytotoxicity in words result in data set [1] is “non-cytotoxic”.
Regarding `CCOc1ccc(-c2nc3ccccc3n2CCN2CCOCC2)cc1` [Compound 2j, 2-(4-Ethoxyphenyl)-1-[2-(morpholin-4-yl)ethyl]-1H-benzimidazole], on COX-1, the IC50 amounted to 14.2 µM, the “COX-1 inhibition at the initial concentrations” value is “more than 50%”, the inhibition at 10 µM was 51.4 ± 1.15% and the inhibition at 1 µM was 44.5 ± 1.07%. For the same molecule, at COX-1, 0.1 µM produced 37.7 ± 0.76% inhibition, the inhibition at 0.01 µM worked out at 27.5 ± 0.82% and 0.001 µM produced 23.4 ± 0.61% inhibition. On COX-1 (10^-3 M), the “COX-1 Inhibition (%)” value is reported as 85.07%. The “COX-1 Inhibition (%)” value on COX-1 (10^-4 M) is recorded as 88.68%. In addition, on COX-2, the concentration for half-maximal inhibition (IC50) amounted to 13.1 µM, the “COX-2 inhibition at the initial concentrations” value was “more than 50%”, the inhibition at 10 µM was found to be 52.5 ± 1.35% and the inhibition at 0.1 µM was determined as 34 ± 1.06%. In addition, on COX-2, 0.01 µM produced 26.9 ± 0.86% inhibition and 0.001 µM produced 20.5 ± 0.76% inhibition. Further, the “COX-2 Inhibition (%)” value on COX-2 (10^-3 M) stood at 80.66%. Further, the “COX-2 Inhibition (%)” value at COX-2 (10^-4 M) was determined as 79.23%. In addition, the inhibition at 1 µM on COX-2 (10^−6 M) was found to be 43.4 ± 1.27%. Also, the “MAO-B Inhibition (%)” value on human recombinant MAO-B (10^-3 M) is on record as 41.73%. For the same molecule, on human recombinant MAO-B (10^-4 M), the “MAO-B Inhibition (%)” value was 32.44%. In addition, in the data set “MTT cytotoxicity assay”, the 50% inhibitory concentration (IC50) is 316 µM. Moreover, the cytotoxicity in words result in data set [1] is reported as “non-cytotoxic”.
With `COc1ccc(-c2nc3ccccc3n2CCN2CCOCC2)cc1` [Compound 2b, 2-(4-Methoxyphenyl)-1-[2-(morpholin-4-yl)ethyl]-1H-benzimidazole], at COX-1, the IC50 worked out at 8.1 µM, the “COX-1 inhibition at the initial concentrations” value is recorded as “more than 50%”, at 10 µM the inhibition was 59.4 ± 1.24% and 1 µM produced 42.8 ± 1.02% inhibition. For the same molecule, on COX-1, testing at 0.1 µM gave an inhibition of 37.1 ± 0.92%, the inhibition at 0.01 µM turned out to be 26.8 ± 0.87% and the inhibition at 0.001 µM was 19.6 ± 0.76%. In addition, the “COX-1 Inhibition (%)” value on COX-1 (10^-3 M) was 90.12%. Further, on COX-1 (10^-4 M), the “COX-1 Inhibition (%)” value is given as 87.62%. Besides, at COX-2, the concentration for half-maximal inhibition (IC50) was 8.37 µM, the “COX-2 inhibition at the initial concentrations” value is “more than 50%”, at 10 µM the inhibition was 57.9 ± 1.28% and the inhibition at 0.1 µM turned out to be 38.1 ± 0.97%. On COX-2, this molecule returned an inhibition at 0.01 µM of 27.4 ± 0.87% and an inhibition at 0.001 µM of 21.4 ± 0.74%. The “COX-2 Inhibition (%)” value on COX-2 (10^-3 M) worked out at 79.41%. For the same molecule, the “COX-2 Inhibition (%)” value on COX-2 (10^-4 M) was 84.23%. In addition, the inhibition at 1 µM at COX-2 (10^−6 M) turned out to be 43.7 ± 1.12%. Further, the “MAO-B Inhibition (%)” value on human recombinant MAO-B (10^-3 M) was 32.44%. Also, at human recombinant MAO-B (10^-4 M), the “MAO-B Inhibition (%)” value is 31.75%. Further, in “MTT cytotoxicity assay”, the half-inhibitory concentration (IC50) stood at 316 µM. The cytotoxicity in words result in data set [1] is “non-cytotoxic”.
With `CC(C)c1ccc(-c2nc3ccccc3n2CCN2CCOCC2)cc1` [Compound 2e, 2-(4-Isopropylphenyl)-1-[2-(morpholin-4-yl)ethyl]-1H-benzimidazole], the “COX-1 Inhibition (%)” value on COX-1 (10^-3 M) came out at 26.47%; on COX-1 (10^-4 M), 19.88%. Besides, the “COX-2 Inhibition (%)” value at COX-2 (10^-3 M) is listed as 14.26%; at COX-2 (10^-4 M), 22.61%. The figures for the “MAO-B Inhibition (%)” value at human recombinant MAO-B (10^-3 M) and on human recombinant MAO-B (10^-4 M) were 35.47% and 26.65%, respectively.
